Assay results reported in US11739098B2 (BRISTOL-MYERS SQUIBB COMPANY, priority 2017, dated 2023).

Tests used:
Type in all cases: cell-based
human TLR7 = target: T1, human TLR7 (Homo sapiens, UniProt Q9NYK1); test: TLR7 inhibition reporter assay (HEK-Blue cells, SEAP reporter, gardiquimod stimulation); details: HEK-Blue cells overexpressing human TLR7, SEAP reporter, gardiquimod 7.5 μM
T1 construct: host or cells: HEK-Blue cells (HEK293-derived reporter line)
T1 sequence (Q9NYK1 27-1049): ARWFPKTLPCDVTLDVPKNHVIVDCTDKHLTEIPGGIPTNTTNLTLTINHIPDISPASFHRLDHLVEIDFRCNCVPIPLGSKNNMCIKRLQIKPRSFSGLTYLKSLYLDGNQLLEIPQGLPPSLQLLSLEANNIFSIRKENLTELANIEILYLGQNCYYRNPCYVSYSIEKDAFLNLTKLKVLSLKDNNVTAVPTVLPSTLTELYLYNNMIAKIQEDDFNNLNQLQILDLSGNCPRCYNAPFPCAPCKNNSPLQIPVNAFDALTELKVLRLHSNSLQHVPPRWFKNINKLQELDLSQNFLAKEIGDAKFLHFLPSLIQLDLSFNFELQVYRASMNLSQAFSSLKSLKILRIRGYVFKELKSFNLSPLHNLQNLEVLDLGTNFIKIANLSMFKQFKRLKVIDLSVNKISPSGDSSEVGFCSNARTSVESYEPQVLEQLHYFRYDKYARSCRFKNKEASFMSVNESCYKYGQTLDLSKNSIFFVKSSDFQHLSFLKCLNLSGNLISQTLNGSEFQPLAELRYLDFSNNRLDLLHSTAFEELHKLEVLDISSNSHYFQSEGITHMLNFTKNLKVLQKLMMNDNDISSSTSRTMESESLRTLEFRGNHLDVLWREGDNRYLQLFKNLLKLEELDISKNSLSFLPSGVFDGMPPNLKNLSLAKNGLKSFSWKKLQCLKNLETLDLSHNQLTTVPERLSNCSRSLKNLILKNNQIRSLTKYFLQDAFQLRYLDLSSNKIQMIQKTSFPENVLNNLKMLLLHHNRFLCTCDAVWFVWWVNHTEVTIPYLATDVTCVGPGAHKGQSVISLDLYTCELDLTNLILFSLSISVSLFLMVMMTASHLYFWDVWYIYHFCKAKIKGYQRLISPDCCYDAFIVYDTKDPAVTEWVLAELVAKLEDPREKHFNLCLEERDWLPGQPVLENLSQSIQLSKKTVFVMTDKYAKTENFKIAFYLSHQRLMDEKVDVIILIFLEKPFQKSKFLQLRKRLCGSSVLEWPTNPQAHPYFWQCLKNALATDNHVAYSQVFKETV
Method in brief: (§1)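 After 22 h at 37 °C, SEAP secretion was measured from human TLR7-, TLR8- or TLR9-expressing HEK-Blue reporter cells given compound (0.05 nM–50 μM) 30 min before agonist: 7.5 μM gardiquimod, 15.9 μM R848 or 5 nM ODN2006 respectively. Percent inhibition referenced to agonist-plus-DMSO and known-inhibitor wells.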

human TLR8 = target: T2, human TLR8 (Homo sapiens, UniProt Q9NR97); test: TLR8 inhibition reporter assay (HEK-Blue cells, SEAP reporter, R848 stimulation); details: HEK-Blue cells overexpressing human TLR8, SEAP reporter, R848 15.9 μM
T2 construct: host or cells: HEK-Blue cells (HEK293-derived reporter line)
T2 sequence (Q9NR97 27-1041): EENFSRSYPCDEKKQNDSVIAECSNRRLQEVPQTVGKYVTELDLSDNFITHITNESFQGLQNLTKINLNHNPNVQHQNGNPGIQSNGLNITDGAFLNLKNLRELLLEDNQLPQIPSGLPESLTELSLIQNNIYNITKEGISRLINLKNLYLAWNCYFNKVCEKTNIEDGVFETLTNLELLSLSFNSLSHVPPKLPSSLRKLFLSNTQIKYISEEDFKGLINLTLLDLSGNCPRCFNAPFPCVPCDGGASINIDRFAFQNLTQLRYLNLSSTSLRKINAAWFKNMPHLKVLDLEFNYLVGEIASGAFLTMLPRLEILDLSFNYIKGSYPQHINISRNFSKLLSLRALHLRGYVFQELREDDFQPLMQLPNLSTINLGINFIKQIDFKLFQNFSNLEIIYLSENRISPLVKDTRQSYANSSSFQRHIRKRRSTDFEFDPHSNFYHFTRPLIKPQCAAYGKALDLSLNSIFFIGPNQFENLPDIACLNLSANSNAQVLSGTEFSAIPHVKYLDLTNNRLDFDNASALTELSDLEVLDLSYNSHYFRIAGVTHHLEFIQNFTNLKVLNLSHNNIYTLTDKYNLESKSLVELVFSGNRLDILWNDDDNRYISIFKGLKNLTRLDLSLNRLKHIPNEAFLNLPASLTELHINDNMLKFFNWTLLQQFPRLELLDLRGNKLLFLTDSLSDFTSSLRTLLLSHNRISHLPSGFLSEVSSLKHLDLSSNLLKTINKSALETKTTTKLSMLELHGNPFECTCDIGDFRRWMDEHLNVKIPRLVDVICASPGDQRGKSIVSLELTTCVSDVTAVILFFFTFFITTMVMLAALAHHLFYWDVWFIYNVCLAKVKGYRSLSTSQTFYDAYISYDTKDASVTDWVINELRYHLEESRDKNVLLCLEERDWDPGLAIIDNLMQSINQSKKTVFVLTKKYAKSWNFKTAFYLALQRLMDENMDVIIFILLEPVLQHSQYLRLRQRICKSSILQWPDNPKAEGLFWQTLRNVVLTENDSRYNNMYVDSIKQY
Method in brief: as §1

human TLR9 = target: T3, human TLR9 (Homo sapiens, UniProt Q9NR96); test: TLR9 inhibition reporter assay (HEK-Blue cells, SEAP reporter, ODN2006 stimulation); details: HEK-Blue cells overexpressing human TLR9, SEAP reporter, ODN2006 5 nM
T3 construct: host or cells: HEK-Blue cells (HEK293-derived reporter line)
T3 sequence (Q9NR96 26-1032): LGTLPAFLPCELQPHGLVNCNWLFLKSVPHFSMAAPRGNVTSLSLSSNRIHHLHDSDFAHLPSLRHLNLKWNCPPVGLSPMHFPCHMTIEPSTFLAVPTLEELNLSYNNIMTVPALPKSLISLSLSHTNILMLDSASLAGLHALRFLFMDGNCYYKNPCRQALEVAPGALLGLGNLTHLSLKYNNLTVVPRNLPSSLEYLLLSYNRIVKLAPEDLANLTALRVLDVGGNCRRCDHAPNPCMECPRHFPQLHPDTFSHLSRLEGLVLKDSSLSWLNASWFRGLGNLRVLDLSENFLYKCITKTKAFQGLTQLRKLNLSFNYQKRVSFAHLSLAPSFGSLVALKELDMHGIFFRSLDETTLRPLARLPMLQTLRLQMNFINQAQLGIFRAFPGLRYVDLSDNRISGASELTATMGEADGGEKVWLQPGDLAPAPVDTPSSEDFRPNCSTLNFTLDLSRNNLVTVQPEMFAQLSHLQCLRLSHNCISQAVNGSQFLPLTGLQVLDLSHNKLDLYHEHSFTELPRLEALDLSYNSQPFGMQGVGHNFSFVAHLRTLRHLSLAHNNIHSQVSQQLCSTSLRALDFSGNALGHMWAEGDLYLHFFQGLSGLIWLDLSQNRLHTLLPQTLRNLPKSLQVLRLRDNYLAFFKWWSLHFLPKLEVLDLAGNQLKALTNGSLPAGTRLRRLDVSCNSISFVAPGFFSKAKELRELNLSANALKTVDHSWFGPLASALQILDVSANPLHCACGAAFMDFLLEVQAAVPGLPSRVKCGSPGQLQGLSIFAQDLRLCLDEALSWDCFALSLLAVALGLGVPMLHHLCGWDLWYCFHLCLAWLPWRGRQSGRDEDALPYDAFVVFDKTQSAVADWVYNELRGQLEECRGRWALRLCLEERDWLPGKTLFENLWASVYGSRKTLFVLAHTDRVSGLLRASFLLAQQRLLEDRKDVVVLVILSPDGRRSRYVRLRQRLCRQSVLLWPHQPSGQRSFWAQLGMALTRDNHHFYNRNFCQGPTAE
Method in brief: as §1

CC(C)c1c(-c2ccnc3c2ncn3C)[nH]c2ccc(C3CCNCC3)cc12 [Example 45, 7-(3-isopropyl-5-(piperidin-4-yl)-1H-indol-2-yl)-3-methyl-3H-imidazo[4,5-b]pyridine]
IC50 (human TLR7): 100 to 1000 nM | IC50 (human TLR8): 100 to 1000 nM | IC50 (human TLR9): 1000 to 50000 nM

CCc1c(-c2ccnc3nn[nH]c23)[nH]c2ccc(C3CCNCC3)cc12 [Example 56, 7-(3-ethyl-5-(piperidin-4-yl)-1H-indol-2-yl)-1H-[1,2,3]triazolo[4,5-b] pyridine]
IC50 (human TLR7): 1000 to 50000 nM | IC50 (human TLR8): 1000 to 50000 nM | IC50 (human TLR9): 1000 to 50000 nM

CC(C)c1c(-c2cc(F)c3nccn3c2)[nH]c2ccc(C3CCN(C(=O)C[C@@H](C)O)CC3)cc12 [Example 605, (R)-1-(4-(2-(8-fluoroimidazo[1,2-a]pyridin-6-yl)-3-isopropyl-1H-indol-5-yl)piperidin-1-yl)-3-hydroxybutan-1-one]
IC50 (human TLR7): < 100 nM | IC50 (human TLR8): 1000 to 50000 nM | IC50 (human TLR9): > 50000 nM

CNC(=O)CN1CCC(c2ccc3[nH]c(-c4cc(OC)n5nc(C)nc5c4)c(C(C)C)c3c2)CC1 [Example 347, 2-(4-(3-isopropyl-2-(5-methoxy-2-methyl-[1,2,4]triazolo[1,5-a]pyridin-7-yl)-1H-indol-5-yl)piperidin-1-yl)-N-methylacetamide]
IC50 (human TLR7): < 100 nM | IC50 (human TLR8): < 100 nM | IC50 (human TLR9): 1000 to 50000 nM

Cc1cc(-c2[nH]c3ccc(C4CCN(C5CCOCC5)CC4)cc3c2C(C)C)cn2ccnc12 [Example 705, 6-(3-isopropyl-5-(1-(tetrahydro-2H-pyran-4-yl)piperidin-4-yl)-1H-indol-2-yl)-8-methylimidazo[1,2-a]pyridine]
IC50 (human TLR7): < 100 nM | IC50 (human TLR8): < 100 nM | IC50 (human TLR9): 100 to 1000 nM

COc1cc(-c2[nH]c3ccc(C4CCNCC4)cc3c2C(C)C)c2ccccc2n1 [Example 105, 4-(3-isopropyl-5-(piperidin-4-yl)-1H-indol-2-yl)-2-methoxyquinoline]
IC50 (human TLR7): < 100 nM | IC50 (human TLR8): 100 to 1000 nM | IC50 (human TLR9): 1000 to 50000 nM

COc1cc(-c2[nH]c3ccc(C4CCN(CC(=O)N(C)C)CC4)cc3c2C(C)C)cc2nc(C)cn12 [Example 334, 2-(4-(3-isopropyl-2-(5-methoxy-2-methylimidazo[1,2-a]pyridin-7-yl)-1H-indol-5-yl)piperidin-1-yl)-N,N-dimethylacetamide]
IC50 (human TLR7): 100 to 1000 nM | IC50 (human TLR8): 100 to 1000 nM | IC50 (human TLR9): 100 to 1000 nM

CCN(CC)C(=O)C1CCCN(CC(=O)N2CCC(c3ccc4[nH]c(-c5ccnc6[nH]ncc56)c(C(C)C)c4c3)CC2)C1 (stereo not drawn) [Example 588, N,N-diethyl-1-(2-(4-(3-isopropyl-2-(1H-pyrazolo[3,4-b]pyridin-4-yl)-1H-indol-5-yl)piperidin-1-yl)-2-oxoethyl)piperidine-3-carboxamide]
IC50 (human TLR7): < 100 nM | IC50 (human TLR8): < 100 nM | IC50 (human TLR9): 100 to 1000 nM

CNC(=O)CN1CCC(c2ccc3[nH]c(-c4cc(C)c5ncccc5c4)c(C(C)C)c3c2)CC1 [Example 437, 2-(4-(3-isopropyl-2-(8-methylquinolin-6-yl)-1H-indol-5-yl)piperidin-1-yl)-N-methylacetamide]
IC50 (human TLR7): < 100 nM | IC50 (human TLR8): < 100 nM | IC50 (human TLR9): 1000 to 50000 nM

CNCC(=O)N1CCC(c2ccc3[nH]c(-c4cc(F)c5nccn5c4)c(C(C)C)c3c2)CC1 [Example 547, 1-(4-(2-(8-fluoroimidazo[1,2-a]pyridin-6-yl)-3-isopropyl-1H-indol-5-yl)piperidin-1-yl)-2-(methylamino)ethan-1-one]
IC50 (human TLR7): < 100 nM | IC50 (human TLR8): 100 to 1000 nM | IC50 (human TLR9): 100 to 1000 nM

FC(F)Cc1c(-c2ccn3ccnc3c2)[nH]c2ccc(C3CCNCC3)cc12 [Example 189, 7-(3-(2,2-difluoroethyl)-5-(piperidin-4-yl)-1H-indol-2-yl)imidazo[1,2-a]pyridine]
IC50 (human TLR7): < 100 nM | IC50 (human TLR8): 100 to 1000 nM | IC50 (human TLR9): < 100 nM

COCCNC(=O)c1cn2cc(-c3[nH]c4ccc(C5CCNCC5)cc4c3C(C)C)cc(C)c2n1 [Example 269, 6-(3-isopropyl-5-(piperidin-4-yl)-1H-indol-2-yl)-N-(2-methoxyethyl)-8-methylimidazo[1,2-a]pyridine-2-carboxamide]
IC50 (human TLR7): < 100 nM | IC50 (human TLR8): < 100 nM | IC50 (human TLR9): 100 to 1000 nM

CCc1c(-c2ccnc3[nH]ncc23)[nH]c2ccc(C3CCN(C(=O)CNC)CC3)cc12 [Example 462, 1-(4-(3-ethyl-2-(1H-pyrazolo [3,4-b]pyridin-4-yl)-1H-indol-5-yl)piperidin-1-yl)-2-(methylamino)ethan-1-one]
IC50 (human TLR7): < 100 nM | IC50 (human TLR8): < 100 nM | IC50 (human TLR9): 1000 to 50000 nM

CC(=O)NCC(=O)N1CCC(c2ccc3[nH]c(-c4ccnc5[nH]ncc45)c(C(C)C)c3c2)CC1 [Example 567, N-(2-(4-(3-isopropyl-2-(1H-pyrazolo[3,4-b]pyridin-4-yl)-1H-indol-5-yl)piperidin-1-yl)-2-oxoethyl)acetamide]
IC50 (human TLR7): < 100 nM | IC50 (human TLR8): 100 to 1000 nM | IC50 (human TLR9): > 50000 nM
